Biological target: T1, ACE (Rattus norvegicus, UniProt P47820)
T1 construct: membrane fraction prepared from rat lung; from tissue; host or cells: rat lung, membrane fraction (method of Wu-Wong et al.)
T1 sequence (P47820 36-1313): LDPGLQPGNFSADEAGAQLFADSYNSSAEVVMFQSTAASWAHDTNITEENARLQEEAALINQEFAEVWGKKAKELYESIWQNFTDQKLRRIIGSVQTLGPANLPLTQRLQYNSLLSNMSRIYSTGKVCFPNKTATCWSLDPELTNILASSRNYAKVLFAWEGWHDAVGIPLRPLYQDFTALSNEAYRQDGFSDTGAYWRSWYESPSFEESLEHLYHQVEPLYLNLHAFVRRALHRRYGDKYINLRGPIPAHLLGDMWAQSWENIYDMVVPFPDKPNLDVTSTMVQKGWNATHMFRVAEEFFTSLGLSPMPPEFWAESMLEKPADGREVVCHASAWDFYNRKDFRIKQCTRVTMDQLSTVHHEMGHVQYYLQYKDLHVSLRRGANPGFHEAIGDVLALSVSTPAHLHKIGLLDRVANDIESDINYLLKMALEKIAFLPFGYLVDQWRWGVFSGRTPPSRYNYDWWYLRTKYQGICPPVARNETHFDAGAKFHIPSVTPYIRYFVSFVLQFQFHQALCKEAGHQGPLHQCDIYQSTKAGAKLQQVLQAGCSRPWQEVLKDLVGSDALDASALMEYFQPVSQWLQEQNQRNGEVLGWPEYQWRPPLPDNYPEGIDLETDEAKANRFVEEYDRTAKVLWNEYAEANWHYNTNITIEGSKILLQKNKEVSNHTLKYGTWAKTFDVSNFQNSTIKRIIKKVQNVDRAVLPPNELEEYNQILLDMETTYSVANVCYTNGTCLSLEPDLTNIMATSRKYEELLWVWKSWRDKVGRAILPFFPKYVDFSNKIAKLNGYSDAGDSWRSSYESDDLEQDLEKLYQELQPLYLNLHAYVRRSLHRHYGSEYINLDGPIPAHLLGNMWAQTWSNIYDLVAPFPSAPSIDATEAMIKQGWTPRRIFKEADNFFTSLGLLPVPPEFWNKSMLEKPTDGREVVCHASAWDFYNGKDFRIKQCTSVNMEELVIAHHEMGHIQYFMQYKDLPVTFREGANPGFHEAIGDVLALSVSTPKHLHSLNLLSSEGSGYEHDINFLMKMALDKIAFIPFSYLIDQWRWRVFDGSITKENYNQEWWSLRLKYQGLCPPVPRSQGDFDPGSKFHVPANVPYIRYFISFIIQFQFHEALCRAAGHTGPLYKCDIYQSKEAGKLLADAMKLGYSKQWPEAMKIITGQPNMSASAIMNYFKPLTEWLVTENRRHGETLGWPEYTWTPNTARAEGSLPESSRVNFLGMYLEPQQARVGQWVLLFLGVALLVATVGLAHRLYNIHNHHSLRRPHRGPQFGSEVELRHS
Experiment: ACE inhibition activity using rat lung (Experiment A-2)
Format: biochemical
Details: rat lung membrane fraction, borate buffer pH 8.3
Experimental: The ACE inhibition activity was determined by using a membrane fraction prepared from rat lung in accordance with the method of Wu-Wong et al. (Characterization of Endthelin Converting Enzyme in Rat Lung., Junshyum R. Wu-Wong, Gerald, P. Budzik, Edward M. Devine and Terry J. Opgenorth, Biochem. Biophys. Res. Commun., 1990, 171, 1291-1296.).
The ACE activity was determined with the use of a modification (modified to a borate buffer, pH 8.3) of the method of Cushman and Cheung (Spectrophotometric Assay and Properties of the Angiotensin-Converting Enzyme of Rabbit Lung., Cushman, D. W. and Cheung H. S., 1971, 20, 1637-1648.).
In the presence of ACE, the hippurate liberated from hippuryl-histidyl-leucine (Hippuryl-His-Leu (PeptideInstitute Inc., Japan)) was extracted with ethyl acetate and then the absorbance was measured at a wavelength of 228 nm.
With respect to the ACE inhibition activity, the inhibitor was added to the experimental system as described above in such a manner as to give the final concentrations of 1, 3, 10, 30, 100, 300 and 1000 nM, an inhibition curve was prepared, and then the concentration at which 50% inhibition was achieved was taken as IC50.

Row | IC50 | Structure (SMILES)
1 | 11 nM | CC[C@H](C)[C@H](S)C(=O)N[C@H]1CCc2ccccc2N(CC(=O)O)C1=O [Example A-11, (S)-3-[(2S,3S)-2-Mercapto-3-methylvarelylamino]-1-carboxymethyl-2,3,4,5-tetrahydro-1H-[1]benzazepin-2-one]
2 | 13 nM | CC[C@H](C)[C@H](S)C(=O)NC1CCc2ccccc2N(CC(=O)O)C1=O (stereo partly drawn) [Example A-9, 1-Carboxymethyl-3-[(2S,3S)-2-mercapto-3-methylvarelylamino]-1H-[1]benzazepin-2-one]
